Entries after “also recorded” stand apart in the source; their conditions may differ.
Experiments:
[1] = cited from earlier work
Aβ production = Aβ production in Thalidomide-treated APP23 mice; type: in vivo, mouse; conditions: Thalidomide 100 mg/kg/day i.p.
Procedure: (§1) Thalidomide is an effective BACE1 inhibitor. The Thalidomide used to test effectiveness was ordered from Sigma, T144, 1.0 gram. The Thalidomide dose was 100 mg/kg/day. The application of Thalidomide to the mice born by the same mother was during the period from 9 months old to 12 months old. The preparation of Thalidomide was at first to be dissolved in DMSO and then diluted with saline. The injection into peritoneal cavity was performed once a day for 3 months. In general, the average weight of the mice was 30 grams. The volume of injection was 100 mg/kg/day×0.03 Kg/mouse=3 mg/mouse/day (if 10 mg/ml of Thalidomide, then 300 ul/mouse/day). […] The amyloid plaque number was 84.6/section in untreated control APP23 mice, where as there was only 3.91/section in the Thalidomide-treated APP23 mice. Use of Thalidomide in the transgenic mice reduced Aβ plaque formation and Aβ production, which is correlated to the reduced BACE1 enzymatic activity and protein level. […]
APP23 and wild-type mice (n=10 per group) were killed at 12 and 24 mo of age, and one hemisphere of the brain was homogenized in homogenization buffer (250 mM sucrose, 20 mM Tris-HCl, pH 7.4, 1 mM EDTA, and 1 mM EGTA). […] Protein concentration was measured by protein assay (Bio-Rad Laboratories). […] Aβ40 and Aβ42 were measured with an Aβ40 and Aβ42 ELISA kit (Biosource International). […]

APP23 transgenic mice [2] = test: Neuronal loss in Thalidomide-treated APP23 mice; type: in vivo, mouse; conditions: Thalidomide 100 mg/kg/day i.p.
Procedure: as §1
(§2) Quantitation of immunoreactive structures 30-μm serial sagittal sections through the entire rostrocaudal extent of the hippocampus were cut on a cryostat. […] For each section, we delineated a 400-μm^2 area in CA1 and in the entorhinal cortex and counted all NeuN-immunoreactive cells within that 400-μm^2 box. The mean sum of neurons was counted per animal (n=10). […] We also measured the diameter of each counted plaque. […]

[3] = system: Aβ deposition in the brain of APP23 mice; test: Aβ plaque number by 6E10 immunostaining in APP23 mice after Thalidomide injection; type: in vivo, mouse; conditions: Thalidomide 100 mg/kg
Procedure: as §1, §2

APP23 transgenic mice [4] = test: Aβ-related memory deficits in Thalidomide-treated APP23 mice; type: in vivo, mouse; conditions: Thalidomide 100 mg/kg/day i.p.
Procedure: The Thalidomide used to test effectiveness was ordered from Sigma, T144, 1.0 gram. […] The application of Thalidomide to the mice born by the same mother was during the period from 9 months old to 12 months old. The preparation of Thalidomide was at first to be dissolved in DMSO and then diluted with saline. The injection into peritoneal cavity was performed once a day for 3 months. In general, the average weight of the mice was 30 grams. […] The Hole-board memory task was used to measure a mouse's ability to remember which one out of four equidistant holes was baited with food. Two photobeam apparatuses were used with a hole board for assessing directed exploration in mice for behavioral tests. A tested mouse (n=10 for each group) was placed in the center of the hole-board and the number of nose pokes was automatically registered for 5 min. […] The number of head dips, time spent head-dipping, and the number of rearings was recorded. A comprehensive cognitive performance was determined by calculating the mean number of correct pokes per trial that mouse made each day. Cognition was expressed as the percentage of correct pokes. The measurements in the hole-board test were analyzed by unpaired t test. […] A recognition index was calculated for each mouse, expressed as the ratio (100TB)×(TA+TB), where TA and TB are the time spent during the second trial on subject A and subject B, respectively.

BACE1 [5] = biological target: T1, BACE1 (Mus musculus, UniProt P56818); test: BACE1 enzymatic activity in frontal cortex crude extracts of Thalidomide-treated APP23 mice (fluorescent-labeled APP peptide); type: in vivo; conditions: Thalidomide 100 mg/kg
T1 construct: the frontal cortices of 12-months old APP23 transgenic mice after Thalidomide treatment with doses of 100 mg/kg for one month were obtained for the enzymatic crude extracts; from tissue; host or cells: frontal cortex / brain homogenate of APP23 transgenic mice (C57BL/6 background)
T1 sequence (P56818 46-501): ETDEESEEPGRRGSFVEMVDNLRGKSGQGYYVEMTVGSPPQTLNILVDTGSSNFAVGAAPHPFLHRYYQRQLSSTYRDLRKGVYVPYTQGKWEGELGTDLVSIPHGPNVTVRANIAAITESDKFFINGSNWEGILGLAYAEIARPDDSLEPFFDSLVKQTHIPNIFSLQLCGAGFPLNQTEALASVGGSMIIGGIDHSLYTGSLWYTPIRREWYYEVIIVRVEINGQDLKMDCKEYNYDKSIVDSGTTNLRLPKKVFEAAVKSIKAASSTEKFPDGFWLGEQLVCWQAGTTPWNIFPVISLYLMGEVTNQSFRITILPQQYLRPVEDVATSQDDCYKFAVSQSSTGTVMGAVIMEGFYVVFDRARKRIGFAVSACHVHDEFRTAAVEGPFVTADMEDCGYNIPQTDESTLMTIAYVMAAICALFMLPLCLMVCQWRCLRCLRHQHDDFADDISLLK
Procedure: Thalidomide is an effective BACE1 inhibitor. The Thalidomide used to test effectiveness was ordered from Sigma, T144, 1.0 gram. The Thalidomide dose was 100 mg/kg/day. The application of Thalidomide to the mice born by the same mother was during the period from 9 months old to 12 months old. The preparation of Thalidomide was at first to be dissolved in DMSO and then diluted with saline. The injection into peritoneal cavity was performed once a day for 3 months. In general, the average weight of the mice was 30 grams. The volume of injection was 100 mg/kg/day×0.03 Kg/mouse=3 mg/mouse/day (if 10 mg/ml of Thalidomide, then 300 ul/mouse/day). […]
BACE1 enzymatic activity was measured by using an aliquot of brain homogenate from APP23 and the wild-type mice. […] An equal amount of protein was mixed with 100 μl of substrate, and fluorescence intensity was measured with a microplate reader (BioTek) at an excitation wavelength of 320 nm and an emission wavelength of 390 nm.
To evaluate the BACE1 enzymatic activity level under the impact of Thalidomide, the frontal cortices of 12-months old APP23 transgenic mice after Thalidomide treatment with doses of 100 mg/kg for one month were obtained for the enzymatic crude extracts. […] The specific fluorescence was detected when labeled APPwt or APPsw peptides were cleaved by BACE1. […]

BACE1 [6] = test: BACE1 protein level in Thalidomide-treated APP23 mice; type: in vivo, mouse; conditions: Thalidomide 100 mg/kg/day i.p.
Procedure: as §1, with “level. Thus Thalidomide can decrease CSF BACE1 and CSF Aβ in AD and MCI patients.” for “level.”
One BACE1 ELISA used a combination of a highly specific anti-BACE1 polyclonal antibody SECB2 as a capture antibody and biotinylated anti-BACE1 polyclonal antibody SECB1 as a detection antibody. […] The concentration of BACE1 will be calculated from the standard curve and expressed as μg/ml.

BACE1 [7] = biological target: T2, BACE1 (Homo sapiens, UniProt P56817); test: BACE1 enzymatic activity of AD brain crude extracts with caspase inhibitor; type: biochemical; conditions: AD brain enzymatic crude extracts incubated with the caspase inhibitor
T2 construct: from tissue; host or cells: post-mortem brain of sporadic AD patients (temporal cortex / hippocampus samples)
T2 sequence (P56817 46-501): as the sequence (P56818 46-501) above, with S6P, I162V, I165L, T180S, A182V, V340I, A393L, H443Q counted along it
From the text: BACE1 enzymatic activity level increased in brains of AD patients. Fluorescent transfer peptides bearing the APP wild-type peptide (APPwt) BACE1 cleavage site (KTEEISEVKMDAE) or APP Swedish mutation (APPsw) BACE1 cleavage site ([…]) were used to test BACE1 enzymatic activity. These peptides were also labeled with methoxycoumarin acetic acid (MCA) and dinitrophenyl (DNP). As a positive control, we transiently transfected BACE1 cDNA or empty vector into HEK293 cells, and observed high-intensity fluorescence with BACE1-transfected cells (FIG. 2A). Enzymatic activity, represented by the fluorescent intensity of APPwt and APPsw fragments, increased in AD brain samples compared with ND samples (FIG. 2A). Further, more APPsw fragment than the APPwt fragment was cleaved by crude extracts from AD brain (FIG. 2A).

Row | Compound | tolerability of regimen (in words) ([1]; 400 mg Thalidomide, non-elderly subjects with other conditions, without dose-related, severe or serious adverse events) | maximum tolerable doses ([1]; human, in vivo) | Aβ production (in words) (Aβ production) | neuronal loss (in words) (APP23 transgenic mice [2]) | Aβ plaque number ([3]; 12 months of age, frontal cortex, 6E10 immunostaining, untreated APP23 84.6/section) | Aβ deposition / Aβ plaques (in words) ([3]; versus untreated APP23 mice) | Aβ-related memory deficits (in words) (APP23 transgenic mice [4]) | BACE1 enzymatic activity level (in words) (BACE1 [5]; 12 months old APP23 mice, frontal cortex extracts, versus untreated APP23 mice) | decrease in BACE1 activity levels (BACE1 [5]; both the in vitro and in vivo studies, APP23 mice) | BACE1 protein level (in words) (BACE1 [6]) | effect on BACE1 enzymatic activity assay (in words) (BACE1 [7])
1 | O=C1CCC(N2C(=O)c3ccccc3C2=O)C(=O)N1 (centres unmarked) [Thalidomide] | tolerated | 400-800 mg/daily | significant reduction | decreased neuronal loss | 3.91 /section | reduced; also recorded: fewer Aβ plaques | alleviated | reduced | 42% | reduced | 
2 | ZVAD (Ome)-CH2F |  |  |  |  |  |  |  |  |  |  | did not perturb activity
